Values after ≈ are worked out from the molar mass of the structure shown. Like-named read-outs stand apart in the source and are kept apart here.
Experiments:
Format in all cases: cell-based
[1] = test system: Pst. micros UPI 5464-1; assay: Antibacterial spectra, MIC; conditions: Parvimonas micra, UPI54641
[2] = test system: Eubacterium lentum GAI 5242; assay: Antibacterial spectra, MIC; conditions: Eggerthella lenta, GAI5242
[3] = test system: Serratia marcescens IID 618; assay: Antibacterial spectra, MIC; conditions: IID618
[4] = test system: B. fragilis 25285; assay: Antibacterial spectra, MIC; conditions: Bacteroides fragilis
[5] = test system: C. ramosum; assay: Antibacterial spectra, MIC; conditions: Thomasclavelia ramosa
[6] = test system: Bacteroides fragilis GM 7000; assay: Antibacterial spectra, MIC; conditions: GM7000
[7] = test system: Morganella morganii IID 602; assay: Antibacterial spectra, MIC; conditions: IID602
[8] = test system: Pseudomonas aeruginosa V-1; assay: Antibacterial spectra, MIC; conditions: V1
[9] = test system: Peptococcus magnus KY 017; assay: Antibacterial spectra, MIC; conditions: Finegoldia magna, KY017
[10] = test system: F. varium KYA 8501; assay: Antibacterial spectra, MIC; conditions: Fusobacterium varium, KYA8501
[11] = test system: E. coli ATCC 10536; assay: Antibacterial spectra, MIC; conditions: Escherichia coli, ATCC10536
[12] = test system: P. mirabilis IID 994; assay: Antibacterial spectra, MIC; conditions: Proteus mirabilis, IID994
[13] = test system: P. maltophilia GIFU 2491; assay: Antibacterial spectra, MIC; conditions: Stenotrophomonas maltophilia, GIFU2491
[14] = test system: K. pneumoniae 1-220S; assay: Antibacterial spectra, MIC; conditions: Klebsiella pneumoniae, 1220S
[15] = test system: Clostridium difficile I-E; assay: Antibacterial spectra, MIC; conditions: Clostridioides difficile
[16] = test system: F. necrophorum S-45; assay: Antibacterial spectra, MIC; conditions: Fusobacterium necrophorum, S45
[17] = test system: P. aeruginosa IFO 12689; assay: Antibacterial spectra, MIC; conditions: Pseudomonas aeruginosa, IFO12689
[18] = test system: Staphylococcus aureus 209 P; assay: Antibacterial spectra, MIC
[19] = test system: P. cepacia GIFU 518; assay: Antibacterial spectra, MIC; conditions: Burkholderia cepacia, GIFU518
[20] = test system: Streptococcus pyogenes (S-8); assay: Antibacterial spectra, MIC; conditions: 10^6 cells/ml, Gram +
Method: (§1) The antibacterial test was carried out according to the method designated by Japan Society of Chemotherapy.

[21] = test system: Proteus vulgaris IFO 3167; assay: Antibacterial spectra, MIC; conditions: IFO3167, 10^6 cells/ml, Gram -
Method: as §1

[22] = test system: E. coli ML 4707; assay: Antibacterial spectra, MIC; conditions: Escherichia coli, ML4707; 10^6 cells/ml; Gram -
Method: as §1

[23] = test system: E. faecalis IID 682; assay: Antibacterial spectra, MIC; conditions: Enterococcus faecalis, IID682; 10^6 cells/ml; Gram +
Method: as §1

[24] = test system: Shigella sonnei IID 969; assay: Antibacterial spectra, MIC; conditions: IID969, 10^6 cells/ml, Gram -
Method: as §1

[25] = test system: Yersinia enterocolitica IID 981; assay: Antibacterial spectra, MIC; conditions: IID981
[26] = test system: Enterobacter cloacae IID 977; assay: Antibacterial spectra, MIC; conditions: IID977
[27] = test system: Alcaligenes faecalis 0114002; assay: Antibacterial spectra, MIC
[28] = test system: S. pneumoniae IID 552; assay: Antibacterial spectra, MIC; conditions: Streptococcus pneumoniae, IID552
[29] = test system: Bacilus subtilis PCI 219; assay: Antibacterial spectra, MIC; conditions: Bacillus subtilis, PCI219
[30] = test system: Fusobacterium mortiferum 4249; assay: Antibacterial spectra, MIC
[31] = test system: Klebsiella pneumoniae KY(GN)6445; assay: Antibacterial spectra, MIC
[32] = test system: Peptostreptococcus anaerobius KYA 27337; assay: Antibacterial spectra, MIC; conditions: KYA27337
[33] = test system: S. pyogenes IID 692; assay: Antibacterial spectra, MIC; conditions: Streptococcus pyogenes, IID692
[34] = test system: S. aureus Smith; assay: Antibacterial spectra, MIC; conditions: Staphylococcus aureus
[35] = test system: Escherichia coli NIHJ JC-2; assay: Antibacterial spectra, MIC; conditions: NIHJJC2
[36] = test system: B. thetaiotaomicron (0661); assay: Antibacterial spectra, MIC; conditions: Bacteroides thetaiotaomicron
[37] = test system: S. epidermidis IID 866; assay: Antibacterial spectra, MIC; conditions: Staphylococcus epidermidis, IID866
[38] = test system: Salmonella enteritidis IID 604; assay: Antibacterial spectra, MIC; conditions: Salmonella enterica
[39] = test system: P. aeruginosa IID 1210; assay: Antibacterial spectra, MIC; conditions: Pseudomonas aeruginosa, IID1210
[40] = test system: B. vulgatus KYA 29327; assay: Antibacterial spectra, MIC; conditions: Phocaeicola vulgatus, KYA29327
[41] = test system: C. perfringens KYA 13123; assay: microbe, parasite or virus in culture; conditions: Clostridium perfringens, KYA13123
[42] = test system: Veillonella parvula KYA 10790; assay: Antibacterial spectra, MIC; conditions: KYA10790
[43] = test system: B. fragilis 0558; assay: Antibacterial spectra, MIC; conditions: Bacteroides fragilis
[44] = test system: Citrobacter freundii IID 976; assay: Antibacterial spectra, MIC; conditions: IID976
[45] = test system: Acinetobacter anitratus IID 876; assay: Antibacterial spectra, MIC; conditions: Acinetobacter calcoaceticus, IID876
[46] = test system: B. distasonis 8503; assay: Antibacterial spectra, MIC; conditions: Parabacteroides distasonis
[47] = test system: S. aureus IID 670 (Terajima); assay: Antibacterial spectra, MIC; conditions: Staphylococcus aureus, IID670
[48] = test system: Propionibacterium acens 11828; assay: Antibacterial spectra, MIC

COc1c(N2CCC(N)C2)c(F)cc2c(=O)c(C(=O)O)cn(C3CC3)c12 (centres unmarked) [Exp. 4, 7-(3-amino-1-pyrrolidinyl)-1-cyclopropyl-6-fluoro-1,4-dihydro-8-methoxy-4-oxo-3-quinolinecarboxylic acid]
MIC [1]: 0.2 mg/L (≈ 0.553 µM) | MIC [2]: 0.1 mg/L (≈ 0.277 µM) | MIC [3]: 0.05 mg/L (≈ 0.138 µM) | MIC [4]: 0.1 mg/L (≈ 0.277 µM) | MIC [5]: 0.78 mg/L (≈ 2.16 µM) | MIC [6]: 0.2 mg/L (≈ 0.553 µM) | MIC [7]: 0.05 mg/L (≈ 0.138 µM) | MIC [8]: 0.39 mg/L (≈ 1.08 µM) | MIC [9]: 0.1 mg/L (≈ 0.277 µM) | MIC ([10]; 10^6 cells/ml, Gram -, read-out: MIC): 1.56 mg/L (≈ 4.32 µM) | MIC [11]: 0.025 mg/L (≈ 0.0692 µM) | MIC [12]: 0.05 mg/L (≈ 0.138 µM) | MIC [13]: 0.1 mg/L (≈ 0.277 µM) | MIC [14]: 0.05 mg/L (≈ 0.138 µM) | MIC [15]: 0.39 mg/L (≈ 1.08 µM) | MIC [16]: 0.2 mg/L (≈ 0.553 µM) | MIC [17]: 0.39 mg/L (≈ 1.08 µM) | MIC [18]: 0.05 mg/L (≈ 0.138 µM) | MIC [19]: 0.39 mg/L (≈ 1.08 µM) | MIC [20]: 0.05 mg/L | MIC [21]: 0.025 mg/L (≈ 0.0692 µM) | MIC [22]: 0.025 mg/L (≈ 0.0692 µM) | MIC [23]: 0.1 mg/L | MIC [24]: 0.025 mg/L (≈ 0.0692 µM) | MIC [25]: 0.05 mg/L (≈ 0.138 µM) | MIC [26]: 0.05 mg/L (≈ 0.138 µM) | MIC [27]: 0.39 mg/L (≈ 1.08 µM) | MIC [28]: 0.1 mg/L (≈ 0.277 µM) | MIC [29]: 0.025 mg/L (≈ 0.0692 µM) | MIC [30]: 0.2 mg/L (≈ 0.553 µM) | MIC [31]: 0.05 mg/L (≈ 0.138 µM) | MIC [32]: 0.2 mg/L (≈ 0.553 µM) | MIC [33]: 0.1 mg/L (≈ 0.277 µM) | MIC [34]: 0.05 mg/L (≈ 0.138 µM) | MIC [35]: 0.0125 mg/L (≈ 0.0346 µM) | MIC [36]: 0.2 mg/L (≈ 0.553 µM) | MIC [37]: 0.1 mg/L (≈ 0.277 µM) | MIC [38]: 0.05 mg/L (≈ 0.138 µM) | MIC [39]: 0.39 mg/L (≈ 1.08 µM) | MIC [40]: 0.39 mg/L (≈ 1.08 µM) | MIC [41]: 0.2 mg/L (≈ 0.553 µM) | MIC [42]: 0.2 mg/L (≈ 0.553 µM) | MIC [43]: 0.1 mg/L (≈ 0.277 µM) | MIC [44]: 0.05 mg/L (≈ 0.138 µM) | MIC [45]: 0.05 mg/L (≈ 0.138 µM) | MIC [46]: 0.78 mg/L (≈ 2.16 µM) | MIC [47]: 0.05 mg/L (≈ 0.138 µM) | MIC ([48]; 10^6 cells/ml, Gram +, read-out: MIC): 1.56 mg/L (≈ 4.32 µM)

COc1c(N2CCC(CN)C2)c(F)cc2c(=O)c(C(=O)O)cn(C3CC3)c12 (centres unmarked) [Exp. 7, 7-(3-aminomethyl-1-pyrrolidinyl)-1-cyclopropyl-6-fluoro-1,4-dihydro-8-methoxy-4-oxo-3-quinolinecarboxylic acid]
MIC [1]: 0.1 mg/L (≈ 0.266 µM) | MIC [2]: 0.39 mg/L (≈ 1.04 µM) | MIC [3]: 0.2 mg/L (≈ 0.533 µM) | MIC [4]: 0.2 mg/L (≈ 0.533 µM) | MIC [5]: 0.78 mg/L (≈ 2.08 µM) | MIC [6]: 0.39 mg/L (≈ 1.04 µM) | MIC [7]: 0.2 mg/L (≈ 0.533 µM) | MIC [8]: 0.2 mg/L (≈ 0.533 µM) | MIC [9]: 0.05 mg/L (≈ 0.133 µM) | MIC [10]: 0.78 mg/L (≈ 2.08 µM) | MIC [11]: 0.05 mg/L (≈ 0.133 µM) | MIC [12]: 0.05 mg/L (≈ 0.133 µM) | MIC [13]: 0.2 mg/L (≈ 0.533 µM) | MIC [14]: 0.1 mg/L (≈ 0.266 µM) | MIC [15]: 0.39 mg/L (≈ 1.04 µM) | MIC [16]: 0.2 mg/L (≈ 0.533 µM) | MIC [17]: 0.78 mg/L (≈ 2.08 µM) | MIC [18]: 0.025 mg/L (≈ 0.0666 µM) | MIC [19]: 0.78 mg/L (≈ 2.08 µM) | MIC [21]: 0.05 mg/L (≈ 0.133 µM) | MIC [22]: 0.05 mg/L (≈ 0.133 µM) | MIC [24]: 0.05 mg/L (≈ 0.133 µM) | MIC [25]: 0.1 mg/L (≈ 0.266 µM) | MIC [26]: 0.1 mg/L (≈ 0.266 µM) | MIC [27]: 0.39 mg/L (≈ 1.04 µM) | MIC [29]: 0.025 mg/L (≈ 0.0666 µM) | MIC [30]: 0.2 mg/L (≈ 0.533 µM) | MIC [31]: 0.05 mg/L (≈ 0.133 µM) | MIC [32]: 0.05 mg/L (≈ 0.133 µM) | MIC [34]: 0.05 mg/L (≈ 0.133 µM) | MIC [35]: 0.025 mg/L (≈ 0.0666 µM) | MIC [36]: 0.39 mg/L (≈ 1.04 µM) | MIC [37]: 0.05 mg/L (≈ 0.133 µM) | MIC [38]: 0.05 mg/L (≈ 0.133 µM) | MIC [39]: 0.78 mg/L (≈ 2.08 µM) | MIC [40]: 0.39 mg/L (≈ 1.04 µM) | MIC [41]: 0.2 mg/L (≈ 0.533 µM) | MIC [42]: 0.1 mg/L (≈ 0.266 µM) | MIC [43]: 0.2 mg/L (≈ 0.533 µM) | MIC [44]: 0.05 mg/L (≈ 0.133 µM) | MIC [45]: 0.05 mg/L (≈ 0.133 µM) | MIC [46]: 0.78 mg/L (≈ 2.08 µM) | MIC [47]: 0.025 mg/L (≈ 0.0666 µM) | MIC [48]: 0.39 mg/L (≈ 1.04 µM)

Source: patent US5043450A, “8-alkoxyquinolonecarboxylic acid and salts thereof” (priority 1986, dated 1991)
